How the values were obtained:
[1] = tested on: 9L tumor cells mixed with HSV-tk+ connexin43- fibroblasts; test: GCV treatment of 9L tumors with HSV-tk+ connexin43- fibroblasts (Example 4); assay type: in vivo, athymic mice
Procedure: (§1) 5 athymic (immuno-incompetent) mice were injected subcutaneously with mixtures of 1×10^7 9L tumor cells and either immortalized connexin43^- mouse fibroblasts engineered to express HSV-tk (5 mice) or immortalized mouse fibroblasts from normal mice which express connexin 43 and had also been engineered to express HSV-tk (5 mice). The inoculated cells were allowed to grow into tumors. The tumor-bearing animals were treated with GCV (25 mg/kg) for 7 days. Tumor size was monitored and 14 days following the initiation of GCV treatment the tumors were removed. In a parallel experiment, animals injected with a mixture of 1×10^79L tumor cells and with immortalized connexin43^- mouse fibroblasts engineered to express HSV-tk were mock-treated with sham injections of phosphate buffeted saline (PBS) lacking GCV.
Two other groups of 5 animals inoculated with mixtures of 9L cells and HSV-tk^+ fibroblasts derived from cells lacking any connexin43 genes were identically treated.

[2] = tested on: 9L glial tumor cells mixed with PA317 fibroblasts expressing HSV-tk; test: GCV tumor toxicity, co-injected tumor cells and HSV-tk PA317 fibroblasts (Example 1); assay type: in vivo, athymic BALB/C mice; settings: GCV 25 mg/kg BID 7 days; tumors removed 14 days after start of GCV; 9L (high coupling) vs C6 (low coupling); FIG. 3
Procedure: The HSV-tk gene was stably cloned into a PA/317 fibroblasts as described in Mol. Cell. Biol. 6:2895-2902 (1986) and New Eng. J. Med. 232:570-578 (1990). Athymic (immune-incompetent) BALB/C mice were injected subcutaneously with mixtures of: 1) 1×10^7 tumor cells known to have either high (9L glial tumor cells) or low (C6 glial tumor cells) levels of gap junction mediated intercellular transport, and 2) 1×10^7 immortalized mouse fibroblasts (PA317 cells) engineered to express HSV-tk. The mixtures of inoculated cells were allowed to grow into tumors over a period of 7-14 days (the time for detectable tumor formation varied depending on the identity and number of injected cells). The tumor-bearing animals were then treated for 7 days with GCV (25 mg/kg, BID) or with phosphate buffeted saline (PBS). Tumor size was periodically monitored.
14 days following the initiation of GCV treatment the tumors were removed. FIG. 3 summarizes the average weight of tumors following their removal. […] Thus, tumor toxicity was greater in tumors with higher levels of gap junction mediated intercellular transport.

[3] = tested on: 9L glial tumor cells; test: GCV therapy after injecting HSV-tk+ PA317 fibroblasts into pre-existing tumors (Example 2); assay type: in vivo, athymic mice; settings: GCV 25 mg/kg BID 7 days from 24 h after fibroblast injection; tumors weighed 14 days after start; FIG. 4
Procedure: 5 athymic (immuno-incompetent) mice were injected subcutaneously with 1×10^7 tumor cells known to have either high (9L glial tumor cells) or low (C6 glial tumor cells) levels of gap junction mediated intercellular transport. 1×10^7 HSV-tk^+ fibroblasts (PA317 cells) were injected into the center of tumors that were formed. GCV therapy (25 mg/kg, BID) was commenced 24 hours later and continued for 7 days. 14 days following the initiation of GCV treatment the tumors were removed and weighed.
These findings indicate the importance of gap junction mediated transport for the bystander killing of tumor cells.

[4] = tested on: 9L tumor cells mixed with HSV-tk+ fibroblasts expressing connexin43; test: GCV treatment of 9L tumors with HSV-tk+ fibroblasts expressing connexin43 (Example 4); assay type: in vivo, athymic mice
Procedure: as §1
Of the 5 animals with tumors consisting of 9L cells and HSV-tk^+ fibroblasts expressing connexin43, only 3 animals still had detectable tumors when examined 7 days after the completion of GCV therapy. […] A matched control group of 5 animals which received sham injections of phosphate buffeted saline (PBS) instead of GCV all had tumors 7 days after the completion of this "sham treatment".

**Q.** `Nc1nc(O)c2ncn(COC(CO)CO)c2n1` [GCV, Ganciclovir] was tested. Which “therapeutic effect of GCV administration against tumors” value ([1]; GCV 25 mg/kg 7 days, fibroblasts with connexin genes deleted, FIG. 6) did it give?
**A.** not effective

**Q.** And the “animals with tumors (of 5)” value ([1]; after 7 days of GCV treatment, 5 animals in group)?
**A.** 5 animals

**Q.** What about the average tumor weight ([1]; after 7 days of GCV treatment, group without GCV 5.68 g) of the same molecule?
**A.** 5.43 g

**Q.** What about the “tumor size (average weight of tumors) versus C6 tumors treated with GCV” value [2] of the same molecule?
**A.** significantly smaller

**Q.** What about the “effect of GCV treatment on tumor weight, 9L versus C6 tumors” value [3] of the same molecule?
**A.** greater in 9L cells

**Q.** What about the “animals with detectable tumors (of 5)” value ([4]; 7 days after completion of GCV therapy, 5 animals in group) of the same molecule?
**A.** 3 animals

**Q.** And the average tumor weight ([4]; GCV 25 mg/kg 7 days, 7 days after completion of GCV therapy, PBS sham control 4.35 g)?
**A.** 0.63 g

**Q.** What about the “therapeutic effect of GCV administration against tumors” value ([4]; GCV 25 mg/kg 7 days, fibroblasts with normal connexin 43 genes, FIG. 6) of the same molecule?
**A.** highly therapeutic effect

Reference: US6149904A, “Method for inhibiting tumor cell growth by administering to tumor cells expressing a nucleic acid encoding a connexin and a pro-drug” (The Regents of the University of California, priority 1997, dated 2000)
